In patent US20110152303A1, “Chemical Compounds” (GlaxoSmithKline LLC, priority 2009, published 2011):
pIC50: −log10 of the molar value.

Tested on: VSV-G pseudotyped, replication defective HIV vector (HIV IIIB) in CIP4 cells
Test: microbe, parasite or virus in culture
Assay type: cell-based
Conditions: Human immunodeficiency virus 1, CIP4, 48 h, read-out: IC50 in the PHIV assay

`[2H]C([2H])([2H])c1cc(/C=C/C#N)cc(C([2H])([2H])[2H])c1Nc1ccnc(Nc2ccc(C#N)cc2)n1` [Compound D, (E)-4-((4-((4-(2-Cyanovinyl)-2,6-dimethylphenyl)amino)pyrimidin-2-yl)amino)benzonitrile-d6] gave a pIC50 of 9.52.
